Measured values as given in US6203976A, “Methods of preparing compositions comprising chemicals capable of transcriptional modulation” (OSI Pharmaceuticals, Inc., priority 1994, dated 2001).
Like-named read-outs stand apart in the source and are kept apart here.

What was measured:
MMTV (M10) promoter = experiment: High-throughput luciferase reporter assay, MMTV promoter (Screen III); assay type: cell-based, mouse; conditions: M10 cells, 6 hours; for FOLD INDUCTION RELATIVE TO SOLVENT CONTROL, MMTV: Screen III activators; for FOLD INHIBITION RELATIVE TO SOLVENT CONTROL, MMTV: Screen III inhibitors
Procedure: pMluci and pSV2Neo, an antibiotic resistance plasmid (112), were co-transfected into NIH/3T3 mouse fibroblast cells using the calcium phosphate precipitation method (103) with a commercially available kit (Pharmacia, Piscataway N.J.). Two days later, cells were transferred to media containing 0.4 mg/ml G418 and were grown for an additional 10-14 days. G418-resistant clones were isolated by standard methods. Once sufficient cell numbers were obtained, clones were analyzed based on several criteria: constitutive luciferase production, induction of luciferase expression by dexamethasone (1 μm, Sigma, St. Louis, Mo.), satisfactory attachment to microtiter plates used in the high-throughput screen and acceptable standard deviation in multiple luciferase expression assays (see below for assay protocol). This analysis was carried out using the luciferase assay conditions described above. Of the clones which satisfied the above criteria for the high throuphput screen, one clone, M10, was selected for use.

[1] = system: human G-CSF (G21) promoter; experiment: High-throughput luciferase reporter assay, G-CSF promoter (Screen III); conditions: for FOLD INDUCTION RELATIVE TO SOLVENT CONTROL, GCSF: Screen III activators
[2] = system: human growth hormone (532) promoter; experiment: High-throughput luciferase reporter assay, human Growth Hormone promoter (Screen III); assay type: cell-based; conditions: 532 cells, 6 hours; for FOLD INDUCTION RELATIVE TO SOLVENT CONTROL, hGH: Screen III activators; for FOLD INHIBITION RELATIVE TO SOLVENT CONTROL, hGH: Screen III inhibitors
[3] = Screen III inhibitors, G21 cells, 6 hours

Row | Compound | FOLD INDUCTION RELATIVE TO SOLVENT CONTROL, MMTV (MMTV (M10) promoter) [fold] | FOLD INDUCTION RELATIVE TO SOLVENT CONTROL, GCSF ([1]; G21 cells, 6 hours) [fold] | FOLD INDUCTION RELATIVE TO SOLVENT CONTROL, hGH [2] [fold] | FOLD INHIBITION RELATIVE TO SOLVENT CONTROL, MMTV (MMTV (M10) promoter) [fold] | FOLD INHIBITION RELATIVE TO SOLVENT CONTROL, GCSF [1, 3] [fold] | FOLD INHIBITION RELATIVE TO SOLVENT CONTROL, hGH [2] [fold] | FOLD INHIBITION RELATIVE TO SOLVENT CONTROL, GCSF [1]
1 | ClCCN1CCCCC1 [compound 254] | 0.98 | 4.09 | 0.90 | – | – | – | –
2 | Nc1ccc(C=CC(=O)O)cc1 [compound 1234] | 1.03 | 4.97 | 0.51 | – | – | – | –
3 | O=C(O[C@H](C(=O)O)[C@H](OC(=O)c1ccccc1)C(=O)O)c1ccccc1 [compound 578] | – | – | – | 0.91 | 0.65 | 4.00 | –
4 | Brc1cccc(-c2ccccc2)c1 [compound 1994] | 0.63 | 3.29 | 0.34 | – | – | – | –
5 | CC(=O)NCCCC[C@H](NC(C)=O)C(=O)O [compound 577] | – | – | – | 0.68 | 0.64 | 4.00 | –
6 | c1ncncn1 [compound 473] | 0.87 | > 3 | 0.50 | – | – | – | –
7 | C1CCNCC1 [compound 759] | – | – | – | 0.95 | – | 5.88 | 0.64
8 | CC(=O)c1ccc[nH]1 [compound 70] | 0.85 | 0.43 | 9.26 | – | – | – | –
9 | O=C(O)c1ccc(Br)o1 [compound 2035] | – | – | – | 0.89 | 0.57 | 7.14 | –
10 | Nc1nc2nc[nH]c2c(=S)[nH]1 [compound 1521] | 0.92 | 3.59 | 0.73 | – | – | – | –
11 | CC1=CC(=C(c2cc(C)c(O)c(C(=O)O)c2)c2c(Cl)ccc(S(=O)(=O)O)c2Cl)C=C(C(=O)O)C1=O [compound 556] | – | – | – | 0.87 | 0.73 | 33.33 | –
12 | CC(CCl)CBr (stereo not drawn) [compound 2096] | 0.89 | 3.27 | 0.61 | – | – | – | –
13 | NCc1ccc(S(N)(=O)=O)cc1 [compound 1375] | 1.37 | 8.94 | 0.04 | – | – | – | –
14 | Clc1cc(Cl)cc(Br)c1 [compound 1255] | 1.09 | 6.74 | 0.43 | – | – | – | –
15 | Nc1nccs1 [compound 1550] | 0.87 | 0.04 | 5.44 | – | – | – | –
16 | O=P(O)(O)Oc1c[nH]c2ccc(Br)c(Cl)c12 [compound 541] | – | – | – | 0.86 | 0.90 | 6.25 | –
17 | Cc1cc(N)sn1 [compound 1397] | 1.13 | 3.63 | 0.57 | – | – | – | –
18 | Cc1c(C(=O)O)c(O)cc2c1C(=O)c1c(O)c([C@@H]3O[C@H](CO)[C@@H](O)[C@H](O)[C@H]3O)c(O)c(O)c1C2=O [compound 240] | – | – | – | 0.80 | 0.63 | 5.26 | –
19 | O=c1[nH]c(=O)c2nc3ccccc3nc2[nH]1 [compound 1890] | – | – | – | 0.58 | 0.80 | 5.26 | –
